Data: patent US20090130691A1, “SCREENING PROTEINASE MODULATORS USING A CHIMERIC PROTEIN AND SKI-I PROPROTEIN CONVERTASE SUBSTRATES AND INHIBITORS” (Institut de Recherches Cliniques de Montreal, priority 2005, published 2009)
Where two headings read alike, the source gives them in different places. Residues, ends and D or L forms follow the SMILES beside them. *: point of attachment. Decanoyl = CCCCCCCCCC(=O)*; CH2Cl = ClC*

Tests used:
SKI-1 [1] = molecular target: T1, SKI-1 (Cricetulus griseus, UniProt Q9Z2A8); assay: cell-based; design: species or system hamster
T1 construct: endogenous in cells; host or cells: CHOK1
T1 sequence (Q9Z2A8 187-1052): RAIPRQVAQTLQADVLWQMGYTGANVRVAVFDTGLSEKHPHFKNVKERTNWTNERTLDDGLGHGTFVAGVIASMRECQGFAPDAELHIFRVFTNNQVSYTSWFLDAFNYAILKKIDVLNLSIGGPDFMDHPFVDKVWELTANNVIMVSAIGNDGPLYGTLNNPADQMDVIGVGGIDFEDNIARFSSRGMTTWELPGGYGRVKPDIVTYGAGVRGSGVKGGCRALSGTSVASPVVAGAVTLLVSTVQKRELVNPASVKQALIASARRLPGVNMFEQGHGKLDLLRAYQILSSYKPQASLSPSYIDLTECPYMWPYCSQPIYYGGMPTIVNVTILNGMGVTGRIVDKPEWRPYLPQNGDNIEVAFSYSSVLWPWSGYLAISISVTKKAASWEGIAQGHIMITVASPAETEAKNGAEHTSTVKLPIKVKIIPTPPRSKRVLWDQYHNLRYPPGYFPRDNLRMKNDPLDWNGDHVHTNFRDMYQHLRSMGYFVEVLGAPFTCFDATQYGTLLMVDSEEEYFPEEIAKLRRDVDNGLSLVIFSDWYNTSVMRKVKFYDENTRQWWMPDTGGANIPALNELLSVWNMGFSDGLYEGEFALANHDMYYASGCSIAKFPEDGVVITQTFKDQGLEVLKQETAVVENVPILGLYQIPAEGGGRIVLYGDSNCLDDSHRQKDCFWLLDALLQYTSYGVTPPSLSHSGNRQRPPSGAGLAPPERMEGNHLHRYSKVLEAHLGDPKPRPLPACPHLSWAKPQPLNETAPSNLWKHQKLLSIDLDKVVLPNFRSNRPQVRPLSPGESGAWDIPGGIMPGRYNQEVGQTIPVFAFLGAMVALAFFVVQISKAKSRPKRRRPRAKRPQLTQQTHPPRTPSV

SKI-1 [2] = molecular target: T1, SKI-1; assay: cell-based
SKI-1 [3] = molecular target: T2, SKI-1 (Homo sapiens, UniProt Q14703); assay type: cell-based
T2 construct: For SKI-1, several cell lines expressing SKI-1 could be used; endogenous in cells; host or cells: HuH7
T2 sequence (Q14703 187-1052): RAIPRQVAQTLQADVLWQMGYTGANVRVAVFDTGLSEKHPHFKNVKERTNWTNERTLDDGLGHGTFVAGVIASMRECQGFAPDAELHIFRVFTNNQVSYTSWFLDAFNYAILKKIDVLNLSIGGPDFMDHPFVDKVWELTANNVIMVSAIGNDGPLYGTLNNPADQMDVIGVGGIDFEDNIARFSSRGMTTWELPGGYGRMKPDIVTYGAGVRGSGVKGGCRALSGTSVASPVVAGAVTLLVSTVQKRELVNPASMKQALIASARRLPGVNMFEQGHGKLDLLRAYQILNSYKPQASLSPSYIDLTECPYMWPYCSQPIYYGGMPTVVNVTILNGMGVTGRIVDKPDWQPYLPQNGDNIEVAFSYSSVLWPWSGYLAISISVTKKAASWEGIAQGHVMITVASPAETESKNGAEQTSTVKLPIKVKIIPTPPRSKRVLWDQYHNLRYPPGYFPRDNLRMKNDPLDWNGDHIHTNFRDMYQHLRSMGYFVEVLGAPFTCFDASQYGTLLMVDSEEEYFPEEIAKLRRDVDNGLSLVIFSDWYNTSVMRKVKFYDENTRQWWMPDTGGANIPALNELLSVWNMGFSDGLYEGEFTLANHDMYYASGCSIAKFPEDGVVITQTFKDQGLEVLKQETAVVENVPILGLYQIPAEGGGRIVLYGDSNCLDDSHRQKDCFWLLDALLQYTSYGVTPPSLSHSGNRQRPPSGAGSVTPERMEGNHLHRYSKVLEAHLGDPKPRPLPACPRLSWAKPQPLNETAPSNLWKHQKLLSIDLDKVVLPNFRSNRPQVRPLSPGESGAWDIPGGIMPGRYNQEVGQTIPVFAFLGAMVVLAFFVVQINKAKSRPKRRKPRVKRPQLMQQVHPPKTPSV

[4] = tested on: endogenous Furin-like PCs; assay: Ex vivo processing of proPDGF-A in HEK293 cells stably expressing PDGF-A-V5; assay type: cell-based, human
[5] = molecular target: T3, SKI-1 (endogenous enzyme of CHOK1 cells) (UniProt Q9Z2A8); assay: cell-based or functional assay
T3 sequence: T1 sequence (Q9Z2A8 187-1052)

[6] = molecular target: endogenous Furin-like PCs; assay: cell-based or functional assay
Furin-like PCs [7] = assay: CELISA detection of HA tag on HeLa cells expressing Furin-like PC bait chimera; assay type: cell-based, human; settings: for effect of serpin expression on presence of the HA tag at the cell surface: PCfur-1.6 cells transfected or adenovirus infected
Protocol: A CELISA test was then used to confirm the results obtained by the FACS analysis (FIG. 7A). Pools of cells transfected with the chimera were rinsed twice with PBS. Then, at room temperature, the following steps were performed. Cells were fixed in PBS and 4% formalin 10 min. They were then rinsed twice with PBS. The anti-HA/peroxidase antibody diluted 1/8000 in PBS and 1% powdered milk (filtered) was then added. The cells were incubated 30 minutes on Labquake™. Again, the cells were rinsed twice with PBS. The substrate (2,2′ azino-Bis (3-ethylobenzathiazoline-6-sulfonic acid); Sigma) was added to the cells and the mixture was incubated 15 minutes. The OD was read at 405 nm and 470 nm for turbidity, and the subtraction of the reading at both wavelengths (405-470) gave normalized product absorbance. The CELISA assay was performed in the presence of different concentrations of dec-RVKR-cmk (SEQ ID NO:35). The signal/noise ratio obtained in the presence of 60 μM of dec-RVKR-CMK (SEQ ID NO: 35) was above 15. The CELISA (FIG. 7B) confirmed that the presence of the inhibitor increases the detection of HA at the surface of the cells.
Some PCfur-1.6 cells were transfected with an expression vector containing a cDNA coding for either α1-PDX or the α1-AT using lipofectamine as described by the manufacturer (Invitrogen) (less than 20% efficacy), or infected using recombinant adenovirus (Ad) as described (Benjannet et al., 2004) (near 100% efficacy).

NARC-1/PCSK9 = assay: Western blot of cells expressing NARC-1/PCSK9 bait (SN11) chimera; assay type: cell-based, human; settings: 50 μM, 6 h
Text: A specific CELISA to the NARC-1/PCSK9 was designed using the approach described in Example 1 above. Chimeras were constructed using sequences known to be cleavable by NARC-1/PCSK9 (SSVFAQ-SIPWN (SEQ ID NO: 31)), or EEDSSVFAQ-SIPWN (SEQ ID NO: 55) combined to full length ACE2-CT segment, and then used to transfect HuH7. Chimeras are also similarly constructed using KHQKLL-SIDLD (SEQ ID NO: 32)). HuH7 was selected amongst 20 cell lines as being one in which the NARC-1/PCSK9 expression level the highest.
Cells expressing chimera containing the NARC/PCSK9 bait SSVFAQ-SIPWN (SEQ ID NO: 31) (SN11) were analyzed by Western blot. Cells were treated or not for 6 h with 50 μM of dec-RVKR-cmk (SEQ ID NO: 35) to inhibit endogenous Furin-like enzymes and thus indirectly activate NARC/PCSK9. Cells express an approximately equal amounts of ER- (endo H sensitive, not shown) and Golgi-associated (endo H resistant, not shown) SN11 chimera as observed using an HA mAb. […] The Western blot protocol used was a standard one using a monoclonal commercial anti-HA antibody coupled to horseradish peroxidase (Sigma; used as proposed by the manufacturer) at a final dilution of 1:5000.

Furin-like PCs [8] = assay: FACS detection of HA tag on HeLa cells expressing Furin-like PC bait chimera; assay type: cell-based, human
Protocol: HeLa cells were submitted to two rounds of fluorescence activated cell sorting (FACS) using Alexa488™ as fluorophore with a MoFlo™ cell sorter (Cytomation, Fort Collins, Colo., USA) to obtain pools of cells expressing the Fc (Fc positive) but negative for the HA tag (HA negative) (FIG. 7A, darker dots). The presence of Fc tags was the sign that cleavage by Furin-like PCs at the bait sequence KRIRLRR←SPD (SEQ ID NO: 29) had released the HA tag.
This isolated pool of cells was incubated for 6 h with 60 μM of dec-RVKR-cmk (SEQ ID NO: 35), a potent PC-inhibitor, and submitted to FACS analysis.
The FACS sorted cells pool was then used to isolate individual clones: 10 clones were isolated of which one (clone PCfur-1.6) expresses a large amount of Fc (i.e. […] chimera) at the cell surface.

Furin-like PCs [9] = assay: Western blot of cell-surface biotinylated proteins of PCfur-1.6 cells immunoprecipitated with HA antibody; assay type: cell-based, human; settings: PCfur-1.6 cells infected with recombinant adenovirus, 1× and 2×
Text: Similar confirmation was obtained using Western blots of cell-surface biotinylated proteins, immunoprecipitated with the HA-antibody and detected on Western using horseraddish peroxidase coupled streptavidin (WB streptavidin-HRP). The Western blot protocol used was a standard one using a monoclonal commercial anti-HA antibody coupled to horseraddish peroxidase (Sigma; used as proposed by the manufacturer) at a final dilution of 1:5000. […] This confirms that the HA reappears specifically in the presence of a PCs inhibitor. […] Small molecules were also identified with the assay (see Example 7).

Question: Which IC50 (SKI-1 [1]) does the source give for `CCCCCCCCCC(=O)N[C@H](C(=O)N[C@@H](CO)C(=O)N[C@@H](CCCNC(=N)N)C(=O)N[C@@H](CCCNC(=N)N)C(=O)N[C@@H](CC(C)C)C(=O)N[C@@H](CC(C)C)C(=O)CCl)[C@@H](C)CC` [dec-ISRRLL-cmk] (Decanoyl-ISRRLL-CH2Cl) here?
Answer: Its IC50 is about 20 µM.

Question: Which IC50 (SKI-1 [2]) does the source give for `CCCCCCCCCC(=O)N[C@@H](CCCNC(=N)N)C(=O)N[C@@H](CCCNC(=N)N)C(=O)N[C@@H](CC(C)C)C(=O)N[C@@H](CC(C)C)C(=O)CCl` [dec-RRLL-cmk, reference compound] (Decanoyl-RRLL-CH2Cl) here?
Answer: The IC50 was at most 1 µM.

Question: How did the IC50 (SKI-1 [1]) turn out when `CCCCCCCCCC(=O)N[C@@H](Cc1ccc(O)cc1)C(=O)N[C@H](C(=O)N[C@@H](CO)C(=O)N[C@@H](CCCNC(=N)N)C(=O)N[C@@H](CCCNC(=N)N)C(=O)N[C@@H](CC(C)C)C(=O)N[C@@H](CC(C)C)C(=O)CCl)[C@@H](C)CC` [dec-YISRRLL-cmk] (Decanoyl-YISRRLL-CH2Cl) was run?
Answer: Its IC50 is about 7 µM.

Question: What about the “re-appearance of the HA tag at the cell surface (FACS)” value (SKI-1 [3]) of the same compound?
Answer: Its value is “A reversion of the level of the chimeric protein to that of the uncleaved form”.

Question: And the “inhibition of ex vivo processing of proPDGF-A (in words)” value [4]?
Answer: Its value is “not an effective inhibitor”.

Question: And the IC50 (SKI-1 [2])?
Answer: Its IC50 is at most 1 µM.

Question: dec-ISRRLL-cmk (peptide) was tested. Which 50% inhibition of the processing of endogenous proSREBP-2 in CHOK1 cells (Western blot) [5] did it give?
Answer: The 50% inhibition of the processing of endogenous proSREBP-2 in CHOK1 cells (Western blot) was 20 µM.

Question: With dec-RRLL-cmk (peptide) as the compound, how does the inhibition of proPDGF-A processing in HEK293 cells (Western blot of media) [6] read?
Answer: Its inhibition of proPDGF-A processing in HEK293 cells (Western blot of media) is over 100 µM.

Question: Which “signal/noise ratio in CELISA” value (Furin-like PCs [7]; HeLa cell pool, 60 μM inhibitor) does the source give for dec-RVKR-cmk (Decanoyl-RVKR-CH2Cl) here?
Answer: Its value is “above 15”.

Question: And the “concentration that completely inhibits proPDGF-A processing” value ([4]; HEK293 cells, overnight, Western blot)?
Answer: Its value is about 3 µM.

Question: What about the “level of Golgi-associated HA tag versus ER-associated (indirect activation of NARC-1/PCSK9)” value (NARC-1/PCSK9) of the same compound?
Answer: Its value is “a substantial decrease in the level of the Golgi-associated HA tag versus the ER-one”.

Question: And the “conversion of cleaved chimera into uncleaved form exhibiting the HA-tag at the cell surface (FACS)” value (Furin-like PCs [8]; clone PCfur-1.6, as little as 30 μM)?
Answer: Its value is “completely converted into an uncleaved form”.

Question: What about the “re-appearance of the HA tag at the cell surface (FACS)” value (Furin-like PCs [8]; stable HeLa cell pool, 60 μM, 6 h) of the same compound?
Answer: Its value is “very significant reversion of the level of the chimeric protein to that of the uncleaved form”.

Question: Which results are given for “α1-AT: serpin α1-antitrypsin, which does not inhibit PCs; control”?
Answer: effect of serpin expression on presence of the HA tag at the cell surface (Furin-like PCs [7]): had no effect; HA-tagged chimera at the cell surface by Western blot (Furin-like PCs [9]): no chimeric HA-tagged chimera could be detected

Question: What does the source list for “α1-PDX: serpin variant, a known PCs inhibitor, expressed from cDNA or adenovirus”?
Answer: increase in absorbance in CELISA, Ad:PDX compared to Ad:AT (Furin-like PCs [7]; PCfur-1.6 cells infected with recombinant adenovirus): ~7 fold; effect of serpin expression on presence of the HA tag at the cell surface (Furin-like PCs [7]): increased the presence of the HA tag at the cell surface; HA-tagged chimera at the cell surface by Western blot (Furin-like PCs [9]): the presence of the HA tag at the cell surface of these cells could be observed
